Assay results published in ChEMBL document CHEMBL5143608, “Peptide-based long-acting co-agonists of GLP-1 and cholecystokinin 1 receptors as novel anti-diabesity agents” (Eur J Med Chem, 2022).
Active and inactive are the calls of the source. The calls are words filed in the database; no cut-off is given here. Where a SMILES comes first, the peptide text is derived from it. [ ]: non-standard residue; d: D form. Aib = CC(C)(N)C(=O)O

Key:
[1] = target: T1, Cholecystokinin receptor type A (Homo sapiens, UniProt P32238); test: Agonist activity at human CCK1R expressed in HEK293 cells assessed as ERK1/2 phosphorylation incubated for 5 mins by AlphaScreen assay; format: functional, cell-based; details: hek293
T1 sequence (P32238 whole entry): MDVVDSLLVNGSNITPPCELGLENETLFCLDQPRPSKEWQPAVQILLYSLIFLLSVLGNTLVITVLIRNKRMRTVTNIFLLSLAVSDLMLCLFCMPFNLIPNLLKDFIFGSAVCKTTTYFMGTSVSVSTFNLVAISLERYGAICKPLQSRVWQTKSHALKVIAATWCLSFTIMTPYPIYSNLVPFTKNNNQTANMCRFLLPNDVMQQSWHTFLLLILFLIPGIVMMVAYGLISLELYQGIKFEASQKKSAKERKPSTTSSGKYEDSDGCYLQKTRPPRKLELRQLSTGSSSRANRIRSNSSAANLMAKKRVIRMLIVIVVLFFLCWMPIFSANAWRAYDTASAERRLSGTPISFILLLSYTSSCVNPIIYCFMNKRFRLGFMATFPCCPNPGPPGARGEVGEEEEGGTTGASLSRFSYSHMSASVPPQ

[2] = target: T2, CCK2R (gastrin/cholecystokinin type B receptor) (Homo sapiens, UniProt P32239); test: Agonist activity at human CCK2R expressed in HEK293 cells assessed as ERK1/2 phosphorylation incubated for 5 mins by AlphaScreen assay; format: functional, cell-based; details: human, HEK293 cells expressing human CCK2R
T2 sequence (P32239 whole entry): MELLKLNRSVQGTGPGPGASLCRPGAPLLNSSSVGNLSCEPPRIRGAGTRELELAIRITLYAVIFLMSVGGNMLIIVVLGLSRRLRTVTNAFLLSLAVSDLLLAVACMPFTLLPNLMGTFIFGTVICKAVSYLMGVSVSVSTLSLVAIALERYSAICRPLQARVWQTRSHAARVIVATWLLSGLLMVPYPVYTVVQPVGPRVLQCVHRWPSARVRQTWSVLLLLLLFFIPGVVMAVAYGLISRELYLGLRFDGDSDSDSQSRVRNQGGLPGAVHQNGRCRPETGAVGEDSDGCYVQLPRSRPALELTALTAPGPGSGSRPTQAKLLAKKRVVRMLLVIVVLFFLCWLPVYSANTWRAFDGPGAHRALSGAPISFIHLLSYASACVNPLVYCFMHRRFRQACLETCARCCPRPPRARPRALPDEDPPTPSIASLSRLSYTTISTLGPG

[3] = target: Glucagon-like peptide 1 receptor (Homo sapiens, UniProt P43220); test: Agonist activity at human GLP-1R expressed in HEK293 cells assessed as cAMP release incubated for 20 min by HTRF analysis; format: functional, cell-based
Sequence of Glucagon-like peptide 1 receptor (P43220 whole entry): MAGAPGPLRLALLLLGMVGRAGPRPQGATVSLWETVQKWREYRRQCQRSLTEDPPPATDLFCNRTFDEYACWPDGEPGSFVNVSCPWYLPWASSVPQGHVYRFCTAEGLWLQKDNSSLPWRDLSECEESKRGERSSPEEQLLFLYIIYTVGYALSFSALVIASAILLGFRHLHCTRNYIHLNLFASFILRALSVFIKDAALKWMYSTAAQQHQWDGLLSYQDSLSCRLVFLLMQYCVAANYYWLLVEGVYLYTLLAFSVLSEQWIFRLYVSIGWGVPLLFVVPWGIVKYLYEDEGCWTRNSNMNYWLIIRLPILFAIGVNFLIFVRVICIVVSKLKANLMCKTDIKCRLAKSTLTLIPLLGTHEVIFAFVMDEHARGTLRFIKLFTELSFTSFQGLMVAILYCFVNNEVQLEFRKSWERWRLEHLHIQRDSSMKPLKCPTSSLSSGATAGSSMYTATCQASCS

Mus musculus [4] = test: Hypoglycemic activity in ICR mouse assessed as improvement in glucose tolerance at 25 nmol/kg, ip administered 30 min before oral glucose administration and measured upto 120 mins by OGTT; format: functional, organism-based
Mus musculus [5] = test: Anorectic activity in ICR mouse assessed as decrease in food intake at 25 nmol/kg, ip and measured after 9 hrs; format: functional, organism-based
Mus musculus [6] = test: Anorectic activity in ICR mouse assessed as decrease in food intake at 25 nmol/kg, ip and measured after 24 hrs; format: functional, organism-based

Compound	EC50 [1] [nM]	EC50 at 5 min [2] [nM]	EC50 ([3]; hek293) [nM]	Activity (Mus musculus [4])	Activity (Mus musculus [5])	Activity (Mus musculus [6])	EC50 [3] [nM]
CCCC[C@H](NC(=O)[C@H](Cc1ccc(CS(=O)(=O)O)cc1)NC(=O)[C@H](CC(=O)O)NC(=O)COCCOCCNC(=O)COCCOCCNC(=O)[C@H](CCCCN)NC(=O)CNC(=O)[C@H](CCCCN)NC(=O)[C@@H](NC(=O)[C@H](CC(C)C)NC(=O)[C@H](Cc1c[nH]c2ccccc12)NC(=O)[C@H](CCC(=O)O)NC(=O)[C@@H](NC(=O)[C@H](Cc1ccccc1)NC(=O)[C@H](CCC(=O)O)NC(=O)[C@H](CCCCN)NC(=O)[C@H](C)NC(=O)[C@H](C)NC(=O)[C@H](CCC(=O)O)NC(=O)[C@H](CCC(=O)O)NC(=O)[C@H](CCC(=O)O)NC(=O)[C@H](CC(C)C)NC(=O)[C@@H](NC(=O)[C@H](CCC(=O)O)NC(=O)[C@@H](NC(=O)[C@@H](NC(=O)[C@H](CC(=O)O)NC(=O)[C@H](CC(N)=O)NC(=O)[C@@H](NC(=O)[C@H](Cc1ccc(O)cc1)NC(=O)[C@@H](NC(=O)CNC(=O)[C@H](CCC(=O)O)NC(=O)C(C)(C)NC(=O)[C@@H](N)Cc1cnc[nH]1)[C@@H](C)O)[C@@H](C)O)C(C)C)[C@@H](C)O)[C@@H](C)O)[C@@H](C)CC)[C@@H](C)CC)C(=O)NCC(=O)N[C@@H](Cc1c[nH]c2ccccc12)C(=O)N[C@@H](CCCC)C(=O)N(C)[C@H](CC(=O)O)C(=O)N(C)[C@@H](Cc1ccccc1)C(N)=O	0.95	> 100	0.092	Active	Active	Active	
CCCC[C@H](NC(=O)[C@H](Cc1ccc(CS(=O)(=O)O)cc1)NC(=O)[C@H](CC(=O)O)NC(=O)COCCOCCNC(=O)COCCOCCNC(=O)[C@H](CCCNC(=N)N)NC(=O)CNC(=O)[C@H](CCCCN)NC(=O)[C@@H](NC(=O)[C@H](CC(C)C)NC(=O)[C@H](Cc1c[nH]c2ccccc12)NC(=O)[C@H](C)NC(=O)[C@@H](NC(=O)[C@H](Cc1ccccc1)NC(=O)[C@H](CCC(=O)O)NC(=O)[C@H](CCCCN)NC(=O)[C@H](C)NC(=O)[C@H](C)NC(=O)[C@H](CCC(N)=O)NC(=O)CNC(=O)[C@H](CCC(=O)O)NC(=O)[C@H](CC(C)C)NC(=O)[C@H](Cc1ccc(O)cc1)NC(=O)[C@H](CO)NC(=O)[C@H](CO)NC(=O)[C@@H](NC(=O)[C@H](CC(=O)O)NC(=O)[C@H](CO)NC(=O)[C@@H](NC(=O)[C@H](Cc1ccccc1)NC(=O)[C@@H](NC(=O)CNC(=O)[C@H](CCC(=O)O)NC(=O)[C@H](C)NC(=O)[C@@H](N)Cc1cnc[nH]1)[C@@H](C)O)[C@@H](C)O)C(C)C)[C@@H](C)CC)C(C)C)C(=O)NCC(=O)N[C@@H](Cc1c[nH]c2ccccc12)C(=O)N[C@@H](CCCC)C(=O)N(C)[C@H](CC(=O)O)C(=O)N(C)[C@@H](Cc1ccccc1)C(N)=O	1.14	> 100		Active	Active	Active	
CCCC[C@H](NC(=O)[C@H](Cc1ccc(CS(=O)(=O)O)cc1)NC(=O)[C@H](CC(=O)O)NC(=O)COCCOCCNC(=O)COCCOCCNC(=O)[C@H](CCCCN)NC(=O)CNC(=O)[C@H](CCCCNC(=O)COCCOCCNC(=O)COCCOCCNC(=O)CC[C@H](NC(=O)CCCCCCCCCCCCCCCCC(=O)O)C(=O)O)NC(=O)[C@@H](NC(=O)[C@H](CC(C)C)NC(=O)[C@H](Cc1c[nH]c2ccccc12)NC(=O)[C@H](CCC(=O)O)NC(=O)[C@@H](NC(=O)[C@H](Cc1ccccc1)NC(=O)[C@H](CCC(=O)O)NC(=O)[C@H](CCCCN)NC(=O)[C@H](C)NC(=O)[C@H](C)NC(=O)[C@H](CCC(=O)O)NC(=O)[C@H](CCC(=O)O)NC(=O)[C@H](CCC(=O)O)NC(=O)[C@H](CC(C)C)NC(=O)[C@@H](NC(=O)[C@H](CCC(=O)O)NC(=O)[C@@H](NC(=O)[C@@H](NC(=O)[C@H](CC(=O)O)NC(=O)[C@H](CC(N)=O)NC(=O)[C@@H](NC(=O)[C@H](Cc1ccc(O)cc1)NC(=O)[C@@H](NC(=O)CNC(=O)[C@H](CCC(=O)O)NC(=O)C(C)(C)NC(=O)[C@@H](N)Cc1cnc[nH]1)[C@@H](C)O)[C@@H](C)O)C(C)C)[C@@H](C)O)[C@@H](C)O)[C@@H](C)CC)[C@@H](C)CC)C(=O)NCC(=O)N[C@@H](Cc1c[nH]c2ccccc12)C(=O)N[C@@H](CCCC)C(=O)N(C)[C@H](CC(=O)O)C(=O)N(C)[C@@H](Cc1ccccc1)C(N)=O	1.03	> 100	0.31	Active	Active	Active	
CCCC[C@H](NC(=O)[C@H](Cc1ccc(CS(=O)(=O)O)cc1)NC(=O)[C@H](CC(=O)O)NC(=O)COCCOCCNC(=O)COCCOCCNC(=O)[C@H](CCCNC(=N)N)NC(=O)CNC(=O)[C@H](CCCCNC(=O)COCCOCCNC(=O)COCCOCCNC(=O)CC[C@H](NC(=O)CCCCCCCCCCCCCCCCC(=O)O)C(=O)O)NC(=O)[C@@H](NC(=O)[C@H](CC(C)C)NC(=O)[C@H](Cc1c[nH]c2ccccc12)NC(=O)[C@H](C)NC(=O)[C@@H](NC(=O)[C@H](Cc1ccccc1)NC(=O)[C@H](CCC(=O)O)NC(=O)[C@H](CCCCN)NC(=O)[C@H](C)NC(=O)[C@H](C)NC(=O)[C@H](CCC(N)=O)NC(=O)CNC(=O)[C@H](CCC(=O)O)NC(=O)[C@H](CC(C)C)NC(=O)[C@H](Cc1ccc(O)cc1)NC(=O)[C@H](CO)NC(=O)[C@H](CO)NC(=O)[C@@H](NC(=O)[C@H](CC(=O)O)NC(=O)[C@H](CO)NC(=O)[C@@H](NC(=O)[C@H](Cc1ccccc1)NC(=O)[C@@H](NC(=O)CNC(=O)[C@H](CCC(=O)O)NC(=O)[C@H](C)NC(=O)[C@@H](N)Cc1cnc[nH]1)[C@@H](C)O)[C@@H](C)O)C(C)C)[C@@H](C)CC)C(C)C)C(=O)NCC(=O)N[C@@H](Cc1c[nH]c2ccccc12)C(=O)N[C@@H](CCCC)C(=O)N(C)[C@H](CC(=O)O)C(=O)N(C)[C@@H](Cc1ccccc1)C(N)=O	1.19	> 100			Active	Active	
CC[C@H](C)[C@H](NC(=O)[C@H](CC(C)C)NC(=O)[C@H](Cc1c[nH]c2ccccc12)NC(=O)[C@H](CCC(=O)O)NC(=O)[C@@H](NC(=O)[C@H](Cc1ccccc1)NC(=O)[C@H](CCC(=O)O)NC(=O)[C@H](CCCCN)NC(=O)[C@H](C)NC(=O)[C@H](C)NC(=O)[C@H](CCC(=O)O)NC(=O)[C@H](CCC(=O)O)NC(=O)[C@H](CCC(=O)O)NC(=O)[C@H](CC(C)C)NC(=O)[C@@H](NC(=O)[C@H](CCC(=O)O)NC(=O)[C@@H](NC(=O)[C@@H](NC(=O)[C@H](CC(=O)O)NC(=O)[C@H](CC(N)=O)NC(=O)[C@@H](NC(=O)[C@H](Cc1ccc(O)cc1)NC(=O)[C@@H](NC(=O)CNC(=O)[C@H](CCC(=O)O)NC(=O)C(C)(C)NC(=O)[C@@H](N)Cc1cnc[nH]1)[C@@H](C)O)[C@@H](C)O)C(C)C)[C@@H](C)O)[C@@H](C)O)[C@@H](C)CC)C(=O)N[C@@H](CCCCN)C(=O)NCC(=O)N[C@@H](CCCCN)C(N)=O (H-H[Aib]EGTYTNDVTETLEEEAAKEFIEWLIKGK-NH2)							0.056
